Assay results from PMC8773328, “Antioxidative and Analgesic Effects of Naringin through Selective Inhibition of Transient Receptor Potential Vanilloid Member 1” (Antioxidants, 2021).

Assays:
Format in all cases: cell-based
[1] = target: T1, Transient receptor potential vanilloid member 1 (TRPV1) (Rattus norvegicus, UniProt O35433); assay: two-electrode voltage clamp in Xenopus oocytes expressing TRPV1, inhibition of current (reference antagonist)
T1 construct: Rat TRPV1 cDNA (NM_031982)

[2] = target: T2, Transient receptor potential vanilloid member 1 (TRPV1) (Rattus norvegicus, UniProt O35433, N628A); assay: two-electrode voltage clamp in Xenopus oocytes expressing mutant TRPV1, inhibition of capsaicin-induced current (reduced maximum inhibition); conditions: read-out: Hill Equation / y = Vmin + (Vmax - Vmin) × x^n/(k^n x^n) / Value
T2 construct: Rat TRPV1 cDNA (NM_031982), N628A
T2 sequence (O35433 whole entry N628A): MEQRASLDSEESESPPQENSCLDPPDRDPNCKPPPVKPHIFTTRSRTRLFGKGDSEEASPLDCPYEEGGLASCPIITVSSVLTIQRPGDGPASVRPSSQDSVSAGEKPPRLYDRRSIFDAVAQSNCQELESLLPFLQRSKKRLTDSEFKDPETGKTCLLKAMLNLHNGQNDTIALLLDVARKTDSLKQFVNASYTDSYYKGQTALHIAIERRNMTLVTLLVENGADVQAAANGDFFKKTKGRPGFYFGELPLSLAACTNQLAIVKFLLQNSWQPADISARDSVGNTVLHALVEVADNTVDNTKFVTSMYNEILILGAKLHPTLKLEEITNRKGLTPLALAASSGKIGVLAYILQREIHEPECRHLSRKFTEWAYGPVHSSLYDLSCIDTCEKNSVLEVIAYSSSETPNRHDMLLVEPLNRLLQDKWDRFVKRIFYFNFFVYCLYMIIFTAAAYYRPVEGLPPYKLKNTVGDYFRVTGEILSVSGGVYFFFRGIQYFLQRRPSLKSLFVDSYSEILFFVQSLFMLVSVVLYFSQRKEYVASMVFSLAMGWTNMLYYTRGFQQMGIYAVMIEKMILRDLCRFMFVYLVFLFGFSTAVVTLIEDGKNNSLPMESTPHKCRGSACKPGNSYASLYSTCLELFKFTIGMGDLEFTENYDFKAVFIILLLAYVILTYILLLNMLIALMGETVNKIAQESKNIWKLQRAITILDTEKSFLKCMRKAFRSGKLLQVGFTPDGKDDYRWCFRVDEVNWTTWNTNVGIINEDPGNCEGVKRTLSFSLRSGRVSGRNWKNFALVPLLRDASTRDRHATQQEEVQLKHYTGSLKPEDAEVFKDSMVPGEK

[3] = target: T1, Transient receptor potential vanilloid member 1 (TRPV1); assay: two-electrode voltage clamp in Xenopus oocytes expressing TRPV1, inhibition of capsaicin-induced current

T1 sequence (O35433 whole entry): as the sequence (O35433 whole entry N628A) above, with A628N counted along it

Row | IC50 [1] | IC50 [2] | IC50 [3] | SMILES
1 | 10.1 µM | – | – | Oc1cc2c(cc1O)CN(C(=S)NCCc1ccc(Cl)cc1)CCC2 [capsazepine]
2 | – | 24.2 µM | 33.3 µM | C[C@@H]1O[C@@H](O[C@H]2[C@H](Oc3cc(O)c4c(c3)O[C@H](c3ccc(O)cc3)CC4=O)O[C@H](CO)[C@@H](O)[C@@H]2O)[C@H](O)[C@H](O)[C@H]1O [naringin]
